Measurements taken from publication PMC9650428, “Mutagenesis and functional analysis of SotB: A multidrug transporter of the major facilitator superfamily from Escherichia coli” (Frontiers in Microbiology, 2022).
Substitutions are numbered along the chain they refer to.

Experiments:
SotB = biological target: T1, SotB (Escherichia coli, UniProt P31122); test: SPR affinity assay, wild-type SotB; type: binding; settings: SPR, wild-type SotB immobilised, one-to-one model; read-out: KD (equilibrium dissociation constant), binding affinity with SotB
T1 construct: The full-length sotB and lapC genes from the E. coli MG1655 genome were subcloned into the cloning vector pET28a; 8xHis (C); made in house; host or cells: E. coli C43(DE3)
T1 sequence (P31122 whole entry): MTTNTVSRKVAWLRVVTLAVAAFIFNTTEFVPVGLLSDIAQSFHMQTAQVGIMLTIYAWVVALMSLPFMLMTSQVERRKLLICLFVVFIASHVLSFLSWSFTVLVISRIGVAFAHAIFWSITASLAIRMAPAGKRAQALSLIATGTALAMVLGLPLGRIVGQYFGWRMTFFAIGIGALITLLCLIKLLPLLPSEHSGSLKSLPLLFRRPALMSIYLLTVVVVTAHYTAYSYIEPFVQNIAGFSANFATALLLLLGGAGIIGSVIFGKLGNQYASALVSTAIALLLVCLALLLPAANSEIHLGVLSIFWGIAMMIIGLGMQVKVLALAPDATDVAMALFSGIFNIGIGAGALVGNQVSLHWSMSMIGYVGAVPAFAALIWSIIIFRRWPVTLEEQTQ
Procedure: (§1) The instrument used in surface plasmon resonance (SPR) affinity assays was OpenSPR (Nicoya, Canada) and the chip used was COOH sensor chip (Nicoya, Canada). SotB and its variants were as ligands. IPTG, L-arabinose, D-xylose, D-glucose, D-fructose, and D-mannose were as small molecules. Using HSB-EP buffer (10 mM HEPES, 150 mM NaCl, 3 mM EDTA, 0.005% Tween-20, pH7.4) as test buffer and setting flow rate 150 μl/min after installed COOH chip according to OpenSPRTM instrument standard operating procedure. After the signal baseline was reached, loading 200 μl 80% isopropyl alcohol and ran for 10 s to drain bubbles. After reaching baseline, the sample ring was rinsed with HSB-EP buffer and emptied with air. After the signal reached the baseline, loading 200 μl EDC (400 mM, Sigma)/NHS (100 mM, Sigma; 1:1) solution with a flow rate 20 μl/min for 4 min. Then, loading 200 μl ligand (SotB/SotB variants) diluted by the activation buffer (sodium acetate, 10 mM, pH3.5) and ran for 4 min (20 μl/min). Then the sample ring was rinsed with HSB-EP buffer and emptied with air. Loading 200 μl 1 M ethanolamine (Sigma) blocking solution (20 μl/min, 4 min), rinsed the sample ring with HSB-EP buffer, and emptied the sample ring with air. Observing baseline for 5 min to ensure stability. The small molecules were diluted with PBS buffer (2 mM of KH2PO4, 10 mM of Na2HPO4, 2.7 mM of KCl, and 137 mM of NaCl at pH 7.4), and the concentration was shown in the experimental results. The flow rate for small molecules was performed at 20 μl/min. The binding time of small molecule and ligand was 240 s, and the dissociation was 240 s. The analysis software used for the experimental results was TraceDrawer, and the analysis method was one-to-one analysis model.

SotB H115A = biological target: T2, SotB H115A (Escherichia coli, UniProt P31122, H115A); test: SPR affinity assay, SotB variant H115A; type: binding
T2 construct: The full-length sotB and lapC genes from the E. coli MG1655 genome were subcloned into the cloning vector pET28a; 8xHis (C); made in house; host or cells: E. coli C43(DE3)
T2 sequence (P31122 1-396 H115A): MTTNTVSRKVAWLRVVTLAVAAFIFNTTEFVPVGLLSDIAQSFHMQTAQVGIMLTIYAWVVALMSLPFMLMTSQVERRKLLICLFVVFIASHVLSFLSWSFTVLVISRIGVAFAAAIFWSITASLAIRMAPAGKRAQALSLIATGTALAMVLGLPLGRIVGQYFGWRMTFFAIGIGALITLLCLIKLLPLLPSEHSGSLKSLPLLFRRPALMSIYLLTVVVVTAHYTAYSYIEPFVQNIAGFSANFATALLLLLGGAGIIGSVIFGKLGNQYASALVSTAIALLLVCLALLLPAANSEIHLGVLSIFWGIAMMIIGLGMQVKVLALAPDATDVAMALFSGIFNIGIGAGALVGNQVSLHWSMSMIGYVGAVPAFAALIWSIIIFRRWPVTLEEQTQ
Procedure: as §1

SotB S339A = biological target: T3, SotB S339A (Escherichia coli, UniProt P31122, S339A); test: SPR affinity assay, SotB variant S339A; settings: read-out: KD, binding affinity with S339A
T3 construct: The full-length sotB and lapC genes from the E. coli MG1655 genome were subcloned into the cloning vector pET28a; 8xHis (C); made in house; host or cells: E. coli C43(DE3)
T3 sequence (P31122 1-396 S339A): T2 sequence (P31122 1-396 H115A) with A115H, S339A
Procedure: as §1, with “The small molecules were diluted with PBS buffer (2 mM of KH2PO4, 10 mM of Na2HPO4, 2.7 mM of KCl, and 137 mM of NaCl at pH 7.4), and the concentration was shown in the experimental results. The flow rate for small molecules was performed at 20 μl/min. The binding time of small molecule and ligand was 240 s, and the dissociation was 240 s. The analysis software used for the experimental results was TraceDrawer, and the analysis method was one-to-one analysis model.” left out

[1] = system: intact E. coli MG1655 strain; test: Growth curve (L-arabinose inhibition / D-xylose competition) assay, intact MG1655; type: cell-based, Escherichia coli
Source text: In the process of sotB gene knockout, two plasmids were introduced into E. coli MG1655 strain: the plasmid pEcCas expressing Cas9 protein (kanamycin resistance) and the plasmid pEcgRNA/sotB expressing related gRNA (spectinomycin resistance). The pEcCas plasmid was successfully eliminated in this study. […] Thus, the sotB-deletion strain has resistance to spectinomycin. In order to carry out the related L-arabinose inhibition assay more strictly, the same plasmid (pEcgRNA/sotB) was then transformed into intact E. coli MG1655 cells, and the growth conditions of the two strains were measured as follows: The E. coli MG1655 cells (intact cells and sotB-deletion cells) were grown in liquid LB medium containing spectinomycin (50 μg/ml) at 37°C for overnight. The cells were then diluted to an OD600 value of 0.8 with liquid LB medium containing spectinomycin (50 μg/ml). Then, the cells were further diluted 1,000 times with liquid LB medium containing spectinomycin (50 μg/ml). The diluted cells were added to a 96-well plate (200 μl/well). Then, L-arabinose was added with final concentrations of 0 μM, 10 μM, 100 μM, 1 mM, 10 mM, and 100 mM, respectively. The 96-well plate was incubated at 37°C, and the OD600 value was measured every 1 h with a microplate reader. For the competition assay, the intact MG1655 cells diluted 1,000 times were divided into two parts and then added into 96-well plate (200 μl/well). One part was directly added with D-xylose at a final concentration of 0, 1, and 10 mM, respectively; the other part was first added with L-arabinose at a final concentration of 10 mM, then D-xylose was added with final concentrations of 0, 1, and 10 mM, respectively. The method of growth curve measurement is the same as above. All the experiments were repeated at least three times.

Q: `OC1OC[C@H](O)[C@H](O)[C@H]1O` (mixture of isomers) [L-arabinose] was tested. Which Kd (SotB) did it give?
A: 4.1 mM

Q: What about the “Binding affinity of H115A, fold lower than the wild-type protein” value (SotB H115A; H115A vs wild-type SotB) of the same molecule?
A: 3.2 fold

Q: What about the Kd (SotB H115A; SotB variant H115A, read-out: KD, binding affinity with H115A) of the same molecule?
A: 13.3 mM

Q: What about the Kd (SotB S339A) of the same molecule?
A: 3.5 mM

Q: And the “Growth of intact MG1655 compared to sotB-deletion MG1655” value ([1]; in the presence of 1 mM L-arabinose)?
A: grew better

Q: What about the “Effect on growth (OD600 growth curve)” value ([1]; intact MG1655, 10 mM final concentration) of the same molecule?
A: significantly inhibit

Q: What about the “Effect on growth (OD600 growth curve)” value ([1]; intact MG1655, 100 mM final concentration) of the same molecule?
A: significantly inhibit
